Test results from PMC11257079 (Environmental science and pollution research international, 2024).
Converted amounts (≈) assume the structure as drawn. Read-outs that look alike come from different tables or passages of the source.

What was measured:
Lemna minor = test: whole plant or invertebrate; type: in vivo; details: for EC50 / inhibition at 1.3 µM: Lemna minor, 168 h
Caenorhabditis elegans = test: whole plant or invertebrate; type: in vivo; details: for EC50: Caenorhabditis elegans, 48 h
Hydra vulgaris = Hydra vulgaris assay; type: in vivo; details: 92 h, read-out: Morphology EC50
[1] = ref PubChem, NIH; cited from earlier work
[2] = at neutral pH and 20–25°C; ref PubChem, NIH; cited from earlier work
[3] = read-out: Chlorophyll Content EC50
[4] = 168 hour (7 day), 95% confidence interval in brackets
[5] = 48 hour, 95% confidence interval in brackets
[6] = 168 hour (7 day), 95% confidence interval in brackets, listed as pentachlorophenol

SMILES | EC50 (Lemna minor; [3]) | EC50 (Lemna minor; read-out: Frond Number EC50) | EC50 (Lemna minor; read-out: Surface Area EC50) | EC50 (Caenorhabditis elegans; read-out: Body Length EC50) | EC50 (Caenorhabditis elegans; read-out: Nose Touch EC50) | EC50 (Caenorhabditis elegans; read-out: Survival EC50) | EC50 (Hydra vulgaris) | Chlorophyll Content EC10 (Lemna minor; [4]) | Frond Number EC10 (Lemna minor; [4]) | Surface Area EC10 (Lemna minor; [4]) | Body Length EC10 (Caenorhabditis elegans; [5]) | Nose Touch EC10 (Caenorhabditis elegans; [5]) | Survival EC10 (Caenorhabditis elegans; [5]) | LogP [1] | Solubility in water [2] | further results
Oc1c(Cl)cc(Cl)cc1Cl [2,4,6-trichlorophenol] | 4 µM | 3.6 µM | 3.5 µM | 180 µM | 250 µM | 230 µM | – | – | – | – | – | – | – | – | – | inhibition at 1.3 µM (Lemna minor; read-out: Inhibition of frond number): -3 ± 7%; inhibition at 1.3 µM (Lemna minor; read-out: Inhibition of surface area): 5.8 ± 0.9%; Chlorophyll Content EC10 (Lemna minor; in vivo): 0.0011 (0.0003–0.0018) mM; Decrease in chlorophyll content (Lemna minor; in vivo): 15 ± 3%; Frond Number EC10 (Lemna minor; in vivo): 0.0019 (0.0015–0.0023) mM; Surface Area EC10 (Lemna minor; in vivo): 0.0016 (0.0011–0.0021) mM; Body Length EC10 (Caenorhabditis elegans; in vivo): 0.12 (0.094–0.14) mM; Decrease in nematode survival (Caenorhabditis elegans; in vivo): 2.6 ± 4%; Impairment to behavior (nose touch response) (Caenorhabditis elegans; in vivo): 16 ± 3%; Impairment to body length (Caenorhabditis elegans; in vivo): 5.9 ± 4%; Nose Touch EC10 (Caenorhabditis elegans; in vivo): 0.12 (0.11–0.15) mM; Survival EC10 (Caenorhabditis elegans; in vivo): 0.19 (0.15–0.23) mM
CNC(=O)O/N=C/C(C)(C)SC [Aldicarb] | 110 µM | 1260 µM | 11000 µM | 250 µM | 9600 µM | 650 µM | 4.6 µM | 0.096 (0.017–0.17) mM | 0.40 (0.28–0.52) mM | 1.0 (0–3.9) mM | 0.22 (0–0.62) mM | 0.27 (0–1.6) mM | 0.47 (0.29–0.65) mM | 1.1 | – | –
CCOP(=S)(OCC)Oc1cc(C)nc(C(C)C)n1 [Diazinon] | 260 µM | 330 µM | 570 µM | 77 µM | 120 µM | 71 µM | 55 µM | 0.016 (0–0.071) mM | 0.030 (0–0.140) mM | 0.031 (0–0.12) mM | 0.016 (0.0083–0.024) mM | 0.080 (0.068–0.093) mM | 0.057 (0.052–0.061) mM | – | – | Chlorophyll Content EC10 (Lemna minor; 168 hour (7 day), 95% confidence interval in brackets, listed as diazinon): 0.0016 mM
O=C(O)CNCP(=O)(O)O [Glyphosate] | 94 µM | 57 µM | 60 µM | 250 µM | 1000 µM | 360 µM | 160 µM | 0.054 (0–0.30) mM | 0.034 (0.022–0.046) mM | 0.053 (0.036–0.071) mM | 0.22 (0.13–0.31) mM | 0.15 NA mM | 0.21 NA mM | −4.6 | 1050 µg/mL (≈ 6.21 mM) | –
Cl[C@H]1[C@H](Cl)[C@@H](Cl)[C@@H](Cl)[C@H](Cl)[C@H]1Cl [Lindane] | 6.1 µM | 7.3 µM | 11 µM | 540 µM | 140 µM | 38 µM | 22 µM | 0.0039 (0.0016–0.0061) mM | 0.0048 (0.0036–0.0060) mM | 0.0040 (0.0021–0.0059) mM | 0.048 (0–0.21) mM | 0.020 (0–0.051) mM | 0.055 (0–0.45) mM | 3.8 | 2 µg/mL (≈ 0.00688 mM) | Chlorophyll Content EC10 (Lemna minor; 168 hour (7 day), 95% confidence interval in brackets, listed as lindane): 0.0039 mM
CON(C)C(=O)Nc1ccc(Cl)c(Cl)c1 [Linuron] | 0.15 µM | 0.18 µM | 0.18 µM | 220 µM | 150 µM | 650 µM | 63 µM | 0.00010 (0.000069–0.00013) mM | 0.00015 (0.00013–0.00016) mM | 0.00014 (0.00013–0.00016) mM | 0.036 (0.0030–0.070) mM | 0.056 (0.029–0.083) mM | 0.29 (0–1.3) mM | – | – | Chlorophyll Content EC10 (Lemna minor; 168 hour (7 day), 95% confidence interval in brackets, listed as linuron): 0.00010 mM
C[n+]1ccc(-c2cc[n+](C)cc2)cc1 [Paraquat] | 0.16 µM | 0.12 µM | 0.11 µM | 1700 µM | 860 µM | 50 µM | 44 µM | 0.00014 (0.00012–0.00016) mM | 0.000090 (0.000080–0.000010) mM | 0.000098 (0.000060–0.000013) mM | 0.086 (0–0.63) mM | 0.50 (0–1.3) mM | 0.044 (0–0.21) mM | 1.7 | >620000 µg/mL | –
Oc1c(Cl)c(Cl)c(Cl)c(Cl)c1Cl [Pentachlorophenol] | 2.3 µM | 8.4 µM | 88 µM | 180 µM | 190 µM | 170 µM | 1.9 µM | 0.00073 (0.00027–0.0012) mM | 0.0053 (0.0037–0.0070) mM | 0.0086 (0–0.031) mM | 0.21 (0–0.98) mM | 0.17 NA mM | 0.11 (0.099–0.13) mM | – | – | Chlorophyll Content EC10 (Lemna minor; [6]): 0.00073 mM; Frond Number EC10 (Lemna minor; [6]): 0.0053 mM; Surface Area EC10 (Lemna minor; [6]): 0.0086 mM; Body Length EC10 (Caenorhabditis elegans; 48 hour, 95% confidence interval in brackets, listed as pentachlorophenol): 0.21 mM
CCCN(CCC)c1c([N+](=O)[O-])cc(C(F)(F)F)cc1[N+](=O)[O-] [Trifluralin] | 4.6 µM | 1.8 µM | 1.4 µM | 180 µM | 220 µM | 140 µM | 10 µM | 0.000042 (0–0.00015) mM | 0.00037 (0–0.00075) mM | 0.00062 (0–0.0014) mM | 0.19 (0–1.2) mM | 0.19 (0–0.59) mM | 0.13 (0.13–0.14) mM | – | – | Chlorophyll Content EC10 (Lemna minor; 168 hour (7 day), 95% confidence interval in brackets, listed as trifluralin): 0.000042 mM; Nose Touch EC10 (Caenorhabditis elegans; 48 hour, 95% confidence interval in brackets, listed as trifluralin): 0.19 mM
